Measurements published in paper PMC6934184, “Selective DNA-PKcs inhibition extends the therapeutic index of localized radiotherapy and chemotherapy” (The Journal of Clinical Investigation, 2019).

Target: T1, NTRK2 (TRKB) (Homo sapiens, UniProt Q16620)
T1 construct: purchased Thermo Fisher Scientific (Life Technologies) SelectScreen
Experiment: SelectScreen Z'LYTE
Assay type: biochemical
Outline: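 NU5455 was profiled across the SelectScreen Broad panel of kinase activity and binding assays. Z'LYTE reactions such as CSF1R ran at apparent Km ATP, while the Adapta CAMK1 assay used ATP listed as 10. Values are given as percent.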

T1 sequence (Q16620 32-822): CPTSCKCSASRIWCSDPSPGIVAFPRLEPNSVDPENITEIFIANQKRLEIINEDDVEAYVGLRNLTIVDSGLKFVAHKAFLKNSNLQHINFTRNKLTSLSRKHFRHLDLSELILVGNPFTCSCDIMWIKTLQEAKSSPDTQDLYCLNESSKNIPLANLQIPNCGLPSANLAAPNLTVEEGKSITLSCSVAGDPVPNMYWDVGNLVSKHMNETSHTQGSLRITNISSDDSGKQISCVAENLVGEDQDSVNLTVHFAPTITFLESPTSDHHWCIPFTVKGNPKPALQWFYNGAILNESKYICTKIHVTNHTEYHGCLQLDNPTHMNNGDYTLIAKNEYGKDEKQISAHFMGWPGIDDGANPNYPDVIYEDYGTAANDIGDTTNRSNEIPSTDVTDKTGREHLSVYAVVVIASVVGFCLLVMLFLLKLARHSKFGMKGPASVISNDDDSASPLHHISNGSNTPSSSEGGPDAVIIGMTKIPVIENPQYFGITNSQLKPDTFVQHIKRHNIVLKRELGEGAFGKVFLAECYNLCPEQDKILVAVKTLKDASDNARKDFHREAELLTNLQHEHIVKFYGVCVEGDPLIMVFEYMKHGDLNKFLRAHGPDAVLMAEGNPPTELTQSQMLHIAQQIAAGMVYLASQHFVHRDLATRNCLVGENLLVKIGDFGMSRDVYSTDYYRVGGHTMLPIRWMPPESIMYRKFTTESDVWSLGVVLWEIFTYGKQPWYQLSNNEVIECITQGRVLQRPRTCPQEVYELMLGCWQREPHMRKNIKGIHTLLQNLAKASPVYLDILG

In the case of CN(C(=O)CN1CCOCC1)c1ccc2sc3c(-c4cccc5c(=O)cc(N6CC7CCC(C6)O7)oc45)cccc3c2c1 [NU5455], the inhibition at 1 µM is reported as 5.1%.
